Assay [1] concerns the target T1, cold-shock domain of LIN28A (Homo sapiens, UniProt Q9H9Z2).
T1 construct: cold shock domain construct LIN28 A (residues 16– 126)
T1 sequence (Q9H9Z2 16-126): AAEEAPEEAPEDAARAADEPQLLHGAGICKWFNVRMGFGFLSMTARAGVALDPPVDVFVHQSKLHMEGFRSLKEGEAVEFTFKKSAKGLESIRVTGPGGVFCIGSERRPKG
Description: Fluorescence quenching binding assay. The text has this: Figure S5. Fluorescence quenching assay measuring binding of PH-31 to the cold-shock domain of
(1 picture or pasted object on this page, not shown here)

Assay [2] has as its target T2, LIN28–let-7 interaction (Homo sapiens, UniProt Q9H9Z2).
T2 construct: Purified LIN28A (residues 16–187) was incubated at a concentration of 200 nM; His-tag (cleaved yes); made in house; host or cells: Escherichia coli BL21(DE3)
T2 sequence (Q9H9Z2 16-187): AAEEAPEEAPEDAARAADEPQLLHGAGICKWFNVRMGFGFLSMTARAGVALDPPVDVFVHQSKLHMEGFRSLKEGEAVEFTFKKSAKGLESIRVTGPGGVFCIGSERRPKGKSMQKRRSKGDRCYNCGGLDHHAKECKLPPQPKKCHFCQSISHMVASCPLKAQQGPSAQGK
Put plainly: Fluorescence polarization (FP) assay, LIN28A (residues 16–187) and FAM-labeled preE-let-7f-1. The class given is binding. Conditions: for FP, Average (mP): raw data Table S3, four replicates. For orientation: Polarisation of emitted light reports the rotation of a fluorescent probe.

Another assay deals with T3, LIN28–let-7 complex (Homo sapiens, UniProt Q9H9Z2).
T3 construct: Purified LIN28A (residues 16–187) was incubated at a concentration of 200 nM; His-tag (cleaved yes); made in house; host or cells: Escherichia coli BL21(DE3)
T3 sequence (Q9H9Z2 16-187): T2 sequence (Q9H9Z2 16-187)
Description: Electrophoretic mobility shift assay (EMSA). The format is binding. Here is the method:
(§1) was detected after incubation at room temperature using a TECAN Spark plate reader. Half maximal
inhibitory concentrations (IC50) were determined using GraphPad Prism 7.
Compound screening. High throughput screening was performed in low volume 384 well plates
(Corning 4514) with 30 µM compound, 40 nM LIN28A, and 2 nM preE-let-7f-1-FAM in FP assay
buffer. Compounds were transferred with an ECHO 520 liquid handler and protein and RNA were
added with a multidrop dispenser. Protein and RNA were added stepwise with a 30 min incubation
period in between. FP was detected after a final incubation of 15 min with an Envision plate reader
and fluorescence was measured with a Paradigm plate reader. A reaction without LIN28 served as a
negative control and one without compound was used as a positive control. The software Quattro
Workflow (Quattro Research GmbH) was used for the analysis of screening data.
Electrophoretic mobility shift assay. EMSA was used as a secondary assay to validate FP-assay hit
molecules. Purified LIN28A (residues 16–187) was incubated with compound and 5 U recombinant
ribonuclease inhibitor (Takara Bio) in EMSA reaction buffer (50 mM Tris (pH 7.5), 100 mM NaCl,
10 mM β-mercaptoethanol, 50 µM ZnCl2, 2 % DMSO, 0.01 % Tween 20, 12 % glycerol) for 2 hours
at room temperature. Subsequently, preE-let-7f-1-Cy3 (mus musculus) (GGGGUAGUGAUUUUAC
CCUGUUUAGGAGAU-Cy3, purchased from IDT) was added to a final concentration of 5 nM and
a reaction volume of 50 µL. The final concentration of LIN28A was 10 nM and compound
concentrations up to 75 µM were used. The reaction mixtures were incubated for a further 15 minutes
and 10 µL loading dye (40 % glycerol, 1.5x TAE) was added. 10 µL of each reaction was separated
in an 8 % polyacrylamide TAE gel at 4 °C and 220 V for 1 h using 0.25x TAE as running buffer. Cy3
fluorescence was detected with a ChemiDoc M P (Bio-Rad) and 2 minutes of exposure time.
Thermal shift assay. Thermal stability of the cold shock domain construct LIN28 A (residues 16–
126) with and without compound was monitored using a NanoTemper Prometheus NT.48 nano -

Assay [3] addresses T2, LIN28–let-7 interaction. Put plainly: Fluorescence polarization (FP) assay, LIN28A (residues 16–187) and FAM-labeled preE-let-7f-1. Conditions: text and figures; C-labels = library sample, PH-labels = in-house resynthesized; read-out: IC50 in the FP assay. The class given is binding. As to the method:
Protein expression and purification.
19 vector and overexpressed in Escherichia coli BL21(DE3). The culture was incubated at 37 °C until
the absorbance at 600 nm (OD600) reached 0.5–0.7. IPTG was added to a final concentration of
300 µM, and overnight induction was performed at 18 °C. Cells were harvested by centrifugation.
The bacterial pellet was resuspended in lysis buffer (50 mM NaH2PO4, pH 7.5, 300 mM NaCl,
0.1 mM PMSF) and lysed using a Microfluidizer (Microfluidics) . A fresh portion of 0.1 mM PMSF
and Triton X-100 (1% final concentration) were added. The lysate was cleared by ultra centrifugation
at 30000 xg and 4 °C for 1 h. The protein purification was performed using immobilized nickel
300 mM NaCl and 5 % glycerol. Gradient elution was performed with a maximum of 0.5 M imidazole.
Subsequently, the affinity tag was cleaved using His6 -TEV-protease and the protease and unspecific
binders were eliminated by a second nickel affinity chromatography. After protein concentration
LIN28A containing fractions were concentrated and applied to a High Load Superdex 75 pg 16/600
column (GE Healthcare) with gel-filtration buffer (30 mM NaH2PO4, pH 7.5, 50 mM NaCl, 5%
glycerol, 2 mM β-ME). The purified protein was concentrated and stored at -80 °C until further
Fluorescence polarization. The fluorescence polarization assay was performed in black low volume
IC50 measurements were performed with three technical
minutes with compound concentrations ranging from 0.3 nM to 100 µM in FP assay buffer (20 mM
Tris, pH 7, 100 mM NaCl, 5 mM MgCl2, 2 mM glutathione (reduced), 0.1 % NP-40). Subsequently,
FAM-labeled preE-let-7f-1 (mus musculus) ([…]-
FAM, synthesized by IDT) was added to a final concentration of 2 nM. Fluorescence polarization
as §1
inhibitory concentrations (IC50) were determined using GraphPad Prism 7. […]

Read-outs that look alike come from different tables or passages of the source.

What is called Kd is the free concentration of one partner at which half of the binding sites on the other are occupied at equilibrium, for simple one-to-one binding. Higher therefore signals a looser complex. One may read the IC50 as the midpoint of a concentration-inhibition curve. For the molecule `O=C(C1=C(O)C(=O)N(c2ccc(O)c(C(=O)O)c2)C1c1ccc(-c2nccs2)cc1)c1ccc(Br)cc1` (stereo not shown) [C902/PH-31], the Kd in assay [1] amounted to 16.5 ± 2.8 µM. In addition, the half-inhibitory concentration (IC50) came to 5 µM at LIN28–let-7 interaction [2] (Table 1, quadruplicate, starting from a maximum concentration of 60 μM, eight concentrations, read-out: IC50, LIN28–let-7 inhibitory activity); 38 µM at LIN28–let-7 complex (relative fluorescence intensity of let-7f divided by that of LIN28–let-7f complex plus let-7f); 18 µM at LIN28–let-7 interaction [3]. The “FP, Average (mP)” value at LIN28–let-7 interaction [2] (0.041 μM compound) is reported as 109.25 mP; at LIN28–let-7 interaction [2] (0.123 μM compound), 110.00 mP; on LIN28–let-7 interaction [2] (0.368 μM compound) it was 113.50 mP; at LIN28–let-7 interaction [2] (1.103 μM compound), 105.75 mP; at LIN28–let-7 interaction [2] (3.125 μM compound) it was 75.05 mP; at LIN28–let-7 interaction [2] (9.375 μM compound), 64.03 mP. Moreover, the “FP, Average (mP)” value came out at 43.05 mP on LIN28–let-7 interaction [2] (29.688 μM compound) and 38.75 mP on LIN28–let-7 interaction [2] (59.375 μM compound). For the same molecule, on LIN28–let-7 complex (compound concentrations up to 75 µM), the “inhibition of the LIN28–let-7 complex in EMSA” value is given as “dose-dependent micromolar inhibition”.

The values above are taken from publication PMC8201479, “Trisubstituted Pyrrolinones as Small-Molecule Inhibitors Disrupting the Protein–RNA Interaction of LIN28 and Let-7” (ACS Medicinal Chemistry Letters, 2021).
